Experimental findings from patent US9187472B2 (AbbVie Inc., priority 2012, dated 2015) are described below.

pIC50: −log10 of the molar value.

This assay has as its system PC3 cells. Nature of the assay: NAMPT Cell Proliferation Assay. Conditions: Homo sapiens, PC-3, 120 h, 5 days incubation, cell viability by Cell Titer Glo. Type of assay: cell-based. How it is done:
NAMPT Cell Proliferation Assay
PC3 cells were seeded in 96-well black plates (Corning #3904) at 500 cells/well in 90 μl of RPMI media containing 10% heat-inactivated FBS and incubated overnight at 37° C. and 5% CO2 to allow cells to attach to wells. The following day, test compounds were serially diluted in neat DMSO to 1000× final concentrations prior to dilution with RPMI media to 10× and 1% DMSO. Ten μL of the 10× compounds were then transferred to wells containing cells to produce a dose response of 10-fold dilutions from 10 μM to 1×10^−5 μM. Cells were incubated for 5 days at 37° C. and 5% CO2, then cell viability was measured using Cell Titer Glo reagent (Promega #G7571). Percent inhibition values were calculated and fitted to a sigmoidal dose response curves using Assay Explorer software to determine IC50s.
In general terms: ATP-based viability assays read luminescence as a measure of living cells.
Consider `O=C(NCc1ccn2ccnc2c1)c1ccc(C2CCN(C(=O)c3ccc4snnc4c3)CC2)cc1` [Example 1004, 4-[1-(1,2,3-benzothiadiazol-5-ylcarbonyl)piperidin-4-yl]-N-(imidazo[1,2-a]pyridin-7-ylmethyl)benzamide], for which the pIC50 (in general, the negative decadic logarithm of the IC50, by convention in mol/L) was 7.25.

In turn, `O=C(NCc1ccn2ccnc2c1)c1ccc(C2CCN(C(=O)c3onc4c3CCCC4)CC2)cc1` [Example 962, N-(imidazo[1,2-a]pyridin-7-ylmethyl)-4-[1-(4,5,6,7-tetrahydro-2,1-benzoxazol-3-ylcarbonyl)piperidin-4-yl]benzamide] gave a pIC50 of 7.79.

As for `COc1ncc(C)cc1C(=O)N1CCC(c2ccc(C(=O)NCc3ccn4ccnc4c3)cc2)CC1` [Example 1114, N-(imidazo[1,2-a]pyridin-7-ylmethyl)-4-{1-[(2-methoxy-5-methylpyridin-3-yl)carbonyl]piperidin-4-yl}benzamide], the pIC50 was 7.66.

`CC1Cc2cccc(C(=O)N3CCC(c4ccc(C(=O)NCc5ccn6ccnc6c5)cc4)CC3)c2O1` (stereo not shown) [Example 1107, N-(imidazo[1,2-a]pyridin-7-ylmethyl)-4-{1-[(2-methyl-2,3-dihydro-1-benzofuran-7-yl)carbonyl]piperidin-4-yl}benzamide] had a pIC50 of 8.65.

The compound `CC(C)(C(=O)Nc1ccc(C(=O)NCc2ccn3ccnc3c2)cc1)c1ccccc1` [Example 896, N-(imidazo[1,2-a]pyridin-7-ylmethyl)-4-[(2-methyl-2-phenylpropanoyl)amino]benzamide] showed a pIC50 of 5.80.

Consider `CC[C@H](C)C(=O)N1CCC(c2ccc(C(=O)NCc3ccc4ncnn4c3)s2)CC1` [Example 844, 5-{1-[(2S)-2-methylbutanoyl]piperidin-4-yl}-N-([1,2,4]triazolo[1,5-a]pyridin-6-ylmethyl)thiophene-2-carboxamide], for which the pIC50 was 7.83.

In turn, `O=C(CC1CCCC1)Nc1ccc(C(=O)NCc2cn3ccnc3cc2F)cc1` [Example 1079, 4-[(cyclopentylacetyl)amino]-N-[(7-fluoroimidazo[1,2-a]pyridin-6-yl)methyl]benzamide] gave a pIC50 of 7.74.

As to `N#Cc1csc(C(=O)N2CCC(c3ccc(C(=O)NCc4ccn5ccnc5c4)cc3)CC2)c1` [Example 1110, 4-{1-[(4-cyanothiophen-2-yl)carbonyl]piperidin-4-yl}-N-(imidazo[1,2-a]pyridin-7-ylmethyl)benzamide], the pIC50 was 6.95.

For the compound `N#Cc1ccc(C(=O)N2CCC(c3ccc(NC(=O)NCc4ccn5ccnc5c4)cc3)CC2)s1` [Example 1131, 1-(4-{1-[(5-cyanothiophen-2-yl)carbonyl]piperidin-4-yl}phenyl)-3-(imidazo[1,2-a]pyridin-7-ylmethyl)urea], the pIC50 is 7.46.

As to `O=C(NCc1ccn2ccnc2c1)Nc1ccc(C2CCN(C(=O)c3cccc4ccncc34)CC2)cc1` [Example 1049, 1-(imidazo[1,2-a]pyridin-7-ylmethyl)-3-{4-[1-(isoquinolin-8-ylcarbonyl)piperidin-4-yl]phenyl}urea], the pIC50 was 8.62.

In turn, `Cc1nc2ccc(C(=O)N3CCC(c4ccc(NC(=O)NCc5ccn6ccnc6c5)cc4)CC3)cc2o1` [Example 1028, 1-(imidazo[1,2-a]pyridin-7-ylmethyl)-3-(4-{1-[(2-methyl-1,3-benzoxazol-6-yl)carbonyl]piperidin-4-yl}phenyl)urea] had a pIC50 of 8.13.

In turn, `Cn1ncc2c(C(=O)N3CCC(c4ccc(C(=O)NCc5ccn6ccnc6c5)cc4)CC3)cccc21` [Example 1119, N-(imidazo[1,2-a]pyridin-7-ylmethyl)-4-{1-[(1-methyl-1H-indazol-4-yl)carbonyl]piperidin-4-yl}benzamide] gave a pIC50 of 8.18.

For the compound `CCc1ccc(C(=O)N2CCC(c3ccc(NC(=O)NCc4ccn5ccnc5c4)cc3)CC2)nc1` [Example 1125, 1-(4-{1-[(5-ethylpyridin-2-yl)carbonyl]piperidin-4-yl}phenyl)-3-(imidazo[1,2-a]pyridin-7-ylmethyl)urea], the negative-log IC50 (pIC50) is 8.32.

Compound `O=C(NCc1ccc2ncnn2c1)c1ccc(C2CCN(S(=O)(=O)c3ccccc3)CC2)s1` [Example 860, 5-[1-(phenylsulfonyl)piperidin-4-yl]-N-([1,2,4]triazolo[1,5-a]pyridin-6-ylmethyl)thiophene-2-carboxamide] gave a negative logarithm of the IC50 (pIC50) of 8.08.

Take `Cc1cccc(C(=O)N2CCC(c3ccc(NC(=O)NCc4ccn5ccnc5c4)cc3)CC2)c1O` [Example 957, 1-{4-[1-(2-hydroxy-3-methylbenzoyl)piperidin-4-yl]phenyl}-3-(imidazo[1,2-a]pyridin-7-ylmethyl)urea]: the pIC50 was 8.45.

The compound `CC(C)c1nccc(C(=O)N2CCC(c3ccc(C(=O)NCc4ccn5ccnc5c4)cc3)CC2)n1` [Example 1006, N-(imidazo[1,2-a]pyridin-7-ylmethyl)-4-(1-{[2-(propan-2-yl)pyrimidin-4-yl]carbonyl}piperidin-4-yl)benzamide] showed a negative-log IC50 (pIC50) of 7.13.

Take `O=C(NCc1ccn2ccnc2c1)c1ccc(C2CCN(C(=O)C(CO)c3ccccc3)CC2)cc1` (stereo not shown) [Example 922, 4-[1-(3-hydroxy-2-phenylpropanoyl)piperidin-4-yl]-N-(imidazo[1,2-a]pyridin-7-ylmethyl)benzamide]: the pIC50 is 8.00.

As to `O=C(NCc1ccc2ncnn2c1)c1ccc(C2CCN(C(=O)C3CCC(F)(F)CC3)CC2)s1` [Example 848, 5-{1-[(4,4-difluorocyclohexyl)carbonyl]piperidin-4-yl}-N-([1,2,4]triazolo[1,5-a]pyridin-6-ylmethyl)thiophene-2-carboxamide], the pIC50 is 7.53.

In the case of `Cc1cccc(C(=O)N2CCC(c3ccc(C(=O)NCc4ccn5ccnc5c4)cc3)CC2)c1O` [Example 937, 4-[1-(2-hydroxy-3-methylbenzoyl)piperidin-4-yl]-N-(imidazo[1,2-a]pyridin-7-ylmethyl)benzamide], the pIC50 is 7.09.

Turning to `O=C(NCc1ccn2ccnc2c1)Nc1ccc(C2CCN(C(=O)Cc3c[nH]c4ccccc34)CC2)cc1` [Example 956, 1-(imidazo[1,2-a]pyridin-7-ylmethyl)-3-{4-[1-(1H-indol-3-ylacetyl)piperidin-4-yl]phenyl}urea], the pIC50 is 8.05.

In the case of `Cn1cc2ccc(C(=O)N3CCC(c4ccc(NC(=O)NCc5ccn6ccnc6c5)cc4)CC3)cc2n1` [Example 1151, 1-(imidazo[1,2-a]pyridin-7-ylmethyl)-3-(4-{1-[(2-methyl-2H-indazol-6-yl)carbonyl]piperidin-4-yl}phenyl)urea], the pIC50 was 8.11.

Turning to `O=C(Cc1ccc(F)cc1F)Nc1ccc(C(=O)NCc2ccn3ccnc3c2)cc1` [Example 891, 4-{[(2,4-difluorophenyl)acetyl]amino}-N-(imidazo[1,2-a]pyridin-7-ylmethyl)benzamide], the pIC50 was 7.06.

On to `Cn1nc2c(c1C(=O)N1CCC(c3ccc(NC(=O)NCc4ccn5ccnc5c4)cc3)CC1)CCCC2` [Example 1014, 1-(imidazo[1,2-a]pyridin-7-ylmethyl)-3-(4-{1-[(2-methyl-4,5,6,7-tetrahydro-2H-indazol-3-yl)carbonyl]piperidin-4-yl}phenyl)urea], for which the pIC50 was 8.68.

The compound `CC(C)n1ccc(C(=O)N2CCC(c3ccc(C(=O)NCc4ccn5ccnc5c4)cc3)CC2)n1` [Example 959, N-(imidazo[1,2-a]pyridin-7-ylmethyl)-4-(1-{[1-(propan-2-yl)-1H-pyrazol-3-yl]carbonyl}piperidin-4-yl)benzamide] had a pIC50 of 8.01.

In the case of `Cc1cccc(C(=O)N2CCC(c3ccc(C(=O)NCc4ccn5ccnc5c4)cc3)CC2)c1` [Example 923, N-(imidazo[1,2-a]pyridin-7-ylmethyl)-4-[1-(3-methylbenzoyl)piperidin-4-yl]benzamide], the pIC50 is 8.34.

`Cc1cc(Cl)c(C(=O)N2CCC(c3ccc(NC(=O)NCc4ccn5ccnc5c4)cc3)CC2)c(C)n1` [Example 1041, 1-(4-{1-[(4-chloro-2,6-dimethylpyridin-3-yl)carbonyl]piperidin-4-yl}phenyl)-3-(imidazo[1,2-a]pyridin-7-ylmethyl)urea] gave a pIC50 of 8.62.

Compound `Cn1cc2c(C(=O)N3CCC(c4ccc(C(=O)NCc5ccn6ccnc6c5)cc4)CC3)cccc2n1` [Example 1116, N-(imidazo[1,2-a]pyridin-7-ylmethyl)-4-{1-[(2-methyl-2H-indazol-4-yl)carbonyl]piperidin-4-yl}benzamide] had a pIC50 of 8.21.

With `CCc1ccc(C(=O)N2CCC(c3ccc(C(=O)NCc4ccn5ccnc5c4)cc3)CC2)nc1` [Example 1088, 4-{1-[(5-ethylpyridin-2-yl)carbonyl]piperidin-4-yl}-N-(imidazo[1,2-a]pyridin-7-ylmethyl)benzamide], the pIC50 was 7.46.

Take `O=C(NCc1ccn2ccnc2c1)Nc1ccc(C2CCN(C(=O)c3ccc4ccncc4c3)CC2)cc1` [Example 1037, 1-(imidazo[1,2-a]pyridin-7-ylmethyl)-3-{4-[1-(isoquinolin-7-ylcarbonyl)piperidin-4-yl]phenyl}urea]: the pIC50 is 8.11.

On to `CC(C)(C(=O)N1CCC(c2ccc(C(=O)NCc3ccn4ccnc4c3)s2)CC1)N1CCNCC1` [Example 879, N-(imidazo[1,2-a]pyridin-7-ylmethyl)-5-{1-[2-methyl-2-(piperazin-1-yl)propanoyl]piperidin-4-yl}thiophene-2-carboxamide], for which the pIC50 is 7.20.

The compound `CC(C(=O)N1CCC(c2ccc(NC(=O)NCc3ccn4ccnc4c3)cc2)CC1)n1ccc(C2CC2)n1` (stereo not shown) [Example 1142, 1-(4-{1-[2-(3-cyclopropyl-1H-pyrazol-1-yl)propanoyl]piperidin-4-yl}phenyl)-3-(imidazo[1,2-a]pyridin-7-ylmethyl)urea] showed a pIC50 of 8.54.
